# According to PubChem BioAssay (NCI):
#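 Where inhibition never reached the appropriate level, the endpoint shown equals the highest concentration tested. Otherwise, values were interpolated linearly from a five-concentration, 48-hour dose response in 96-well plates. Definition used: TGI = concentration required for complete inhibition of growth.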
# How the values were obtained:
# Assay in all cases: inhibition of tumour cell growth, NCI panel, 48 h
# 786-0 renal = tested on: 786-0 renal
# A498 renal = tested on: A498 renal
# A549 NSCLC = tested on: A549 NSCLC
# ACHN renal = tested on: ACHN renal
# CAKI-1 renal = tested on: CAKI-1 renal
# CCRF-CEM leukemia = tested on: CCRF-CEM leukemia
# DLD-1 colon = tested on: DLD-1 colon
# DMS 114 small cell lung = tested on: DMS 114 small cell lung
# DMS 273 small cell lung = tested on: DMS 273 small cell lung
# EKVX NSCLC = tested on: EKVX NSCLC
# HCC-2998 colon = tested on: HCC-2998 colon
# HCT-116 colon = tested on: HCT-116 colon
# HCT-15 colon = tested on: HCT-15 colon
# HL-60(TB) leukemia = tested on: HL-60(TB) leukemia
# HOP-18 NSCLC = tested on: HOP-18 NSCLC
# HOP-62 NSCLC = tested on: HOP-62 NSCLC
# HOP-92 NSCLC = tested on: HOP-92 NSCLC
# HT29 colon = tested on: HT29 colon
# IGROV1 ovarian = tested on: IGROV1 ovarian
# K-562 leukemia = tested on: K-562 leukemia
# KM12 colon = tested on: KM12 colon
# KM20L2 colon = tested on: KM20L2 colon
# LOX IMVI melanoma = tested on: LOX IMVI melanoma
# LXFL 529 NSCLC = tested on: LXFL 529 NSCLC
# M14 melanoma = tested on: M14 melanoma
# M19-MEL melanoma = tested on: M19-MEL melanoma
# MOLT-4 leukemia = tested on: MOLT-4 leukemia
# NCI-H23 lung = tested on: NCI-H23 lung
# NCI-H460 lung = tested on: NCI-H460 lung
# NCI-H522 lung = tested on: NCI-H522 lung
# OVCAR-3 ovarian = tested on: OVCAR-3 ovarian
# OVCAR-4 ovarian = tested on: OVCAR-4 ovarian
# OVCAR-5 ovarian = tested on: OVCAR-5 ovarian
# OVCAR-8 ovarian = tested on: OVCAR-8 ovarian
# RPMI-8226 leukemia = tested on: RPMI-8226 leukemia
# RXF-631 renal = tested on: RXF-631 renal
# SF-268 CNS = tested on: SF-268 CNS
# SF-295 CNS = tested on: SF-295 CNS
# SF-539 CNS = tested on: SF-539 CNS
# SK-MEL-28 melanoma = tested on: SK-MEL-28 melanoma
# SK-MEL-5 melanoma = tested on: SK-MEL-5 melanoma
# SK-OV-3 ovarian = tested on: SK-OV-3 ovarian
# SN12C renal = tested on: SN12C renal
# SNB-19 CNS = tested on: SNB-19 CNS
# SNB-75 CNS = tested on: SNB-75 CNS
# SNB-78 CNS = tested on: SNB-78 CNS
# SR leukemia = tested on: SR leukemia
# SW-620 colon = tested on: SW-620 colon
# TK-10 renal = tested on: TK-10 renal
# U251 CNS = tested on: U251 CNS
# UACC-257 melanoma = tested on: UACC-257 melanoma
# UACC-62 melanoma = tested on: UACC-62 melanoma
# UO-31 renal = tested on: UO-31 renal
# XF 498 CNS = tested on: XF 498 CNS
compound,measurement,setting,value
c1cncc(C2c3[nH]c4ccccc4c3CCN2CCN2CCCCC2)c1 (centres undefined),TGI,786-0 renal,> 100 µM
same,TGI,A498 renal,> 100 µM
same,TGI,A549 NSCLC,> 100 µM
same,TGI,ACHN renal,> 100 µM
same,TGI,CAKI-1 renal,> 100 µM
same,TGI,CCRF-CEM leukemia,> 100 µM
same,TGI,DLD-1 colon,> 100 µM
same,TGI,DMS 114 small cell lung,> 100 µM
same,TGI,DMS 273 small cell lung,> 100 µM
same,TGI,EKVX NSCLC,> 100 µM
same,TGI,HCC-2998 colon,> 100 µM
same,TGI,HCT-116 colon,> 100 µM
same,TGI,HCT-15 colon,> 100 µM
same,TGI,HL-60(TB) leukemia,> 100 µM
same,TGI,HOP-18 NSCLC,> 100 µM
same,TGI,HOP-62 NSCLC,> 100 µM
same,TGI,HOP-92 NSCLC,> 100 µM
same,TGI,HT29 colon,> 100 µM
same,TGI,IGROV1 ovarian,> 100 µM
same,TGI,K-562 leukemia,> 100 µM
same,TGI,KM12 colon,> 100 µM
same,TGI,KM20L2 colon,> 100 µM
same,TGI,LOX IMVI melanoma,> 100 µM
same,TGI,LXFL 529 NSCLC,> 100 µM
same,TGI,M14 melanoma,32.3 µM
same,TGI,M19-MEL melanoma,> 100 µM
same,TGI,MOLT-4 leukemia,> 100 µM
same,TGI,NCI-H23 lung,> 100 µM
same,TGI,NCI-H460 lung,> 100 µM
same,TGI,NCI-H522 lung,> 100 µM
same,TGI,OVCAR-3 ovarian,> 100 µM
same,TGI,OVCAR-4 ovarian,> 100 µM
same,TGI,OVCAR-5 ovarian,> 100 µM
same,TGI,OVCAR-8 ovarian,> 100 µM
same,TGI,RPMI-8226 leukemia,> 100 µM
same,TGI,RXF-631 renal,> 100 µM
same,TGI,SF-268 CNS,> 100 µM
same,TGI,SF-295 CNS,> 100 µM
same,TGI,SF-539 CNS,> 100 µM
same,TGI,SK-MEL-28 melanoma,> 100 µM
same,TGI,SK-MEL-5 melanoma,> 100 µM
same,TGI,SK-OV-3 ovarian,> 100 µM
same,TGI,SN12C renal,> 100 µM
same,TGI,SNB-19 CNS,> 100 µM
same,TGI,SNB-75 CNS,> 100 µM
same,TGI,SNB-78 CNS,> 100 µM
same,TGI,SR leukemia,> 100 µM
same,TGI,SW-620 colon,> 100 µM
same,TGI,TK-10 renal,> 100 µM
same,TGI,U251 CNS,> 100 µM
same,TGI,UACC-257 melanoma,99.4 µM
same,TGI,UACC-62 melanoma,> 100 µM
same,TGI,UO-31 renal,> 100 µM
same,TGI,XF 498 CNS,> 100 µM
